Experimental data from ChEMBL document CHEMBL1201862, “PubChem BioAssay data set” (2004).
The source made the active and inactive calls.

How the values were obtained:
[1] = target: Eukaryotic translation initiation factor 4E (Mus musculus, UniProt P63073); assay: eIF4E–eIF4G protein interaction inhibitors, dose response, biochemical, TR-FRET (AID 855); format: functional;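 also: potency for disrupting eIF4E binding to eIF4GI seen as loss of FRET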
[2] = target: Peroxisome proliferator-activated receptor gamma/Nuclear receptor coactivator 1 (Homo sapiens, UniProt P37231); format: functional;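 also: agonist potency as compounds enhance coactivator SRC-1 recruitment to PPARgamma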
Sequence of Peroxisome proliferator-activated receptor gamma/Nuclear receptor coactivator 1 (P37231 whole entry): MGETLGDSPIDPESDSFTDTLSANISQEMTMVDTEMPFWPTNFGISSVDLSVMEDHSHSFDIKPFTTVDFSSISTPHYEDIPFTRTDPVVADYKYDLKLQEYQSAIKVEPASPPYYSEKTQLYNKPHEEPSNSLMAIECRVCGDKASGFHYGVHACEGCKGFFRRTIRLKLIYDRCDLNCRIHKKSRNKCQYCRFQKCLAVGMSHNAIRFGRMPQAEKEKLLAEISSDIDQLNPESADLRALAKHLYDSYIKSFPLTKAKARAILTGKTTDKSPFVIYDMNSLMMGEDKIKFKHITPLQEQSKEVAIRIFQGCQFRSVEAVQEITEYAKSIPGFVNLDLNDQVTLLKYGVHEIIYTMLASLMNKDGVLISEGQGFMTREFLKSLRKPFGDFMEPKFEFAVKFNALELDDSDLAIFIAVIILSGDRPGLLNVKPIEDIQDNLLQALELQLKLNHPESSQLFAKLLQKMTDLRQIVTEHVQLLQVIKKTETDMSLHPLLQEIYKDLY
Sequence of Peroxisome proliferator-activated receptor gamma/Nuclear receptor coactivator 1 (Q15788 whole entry, further chain): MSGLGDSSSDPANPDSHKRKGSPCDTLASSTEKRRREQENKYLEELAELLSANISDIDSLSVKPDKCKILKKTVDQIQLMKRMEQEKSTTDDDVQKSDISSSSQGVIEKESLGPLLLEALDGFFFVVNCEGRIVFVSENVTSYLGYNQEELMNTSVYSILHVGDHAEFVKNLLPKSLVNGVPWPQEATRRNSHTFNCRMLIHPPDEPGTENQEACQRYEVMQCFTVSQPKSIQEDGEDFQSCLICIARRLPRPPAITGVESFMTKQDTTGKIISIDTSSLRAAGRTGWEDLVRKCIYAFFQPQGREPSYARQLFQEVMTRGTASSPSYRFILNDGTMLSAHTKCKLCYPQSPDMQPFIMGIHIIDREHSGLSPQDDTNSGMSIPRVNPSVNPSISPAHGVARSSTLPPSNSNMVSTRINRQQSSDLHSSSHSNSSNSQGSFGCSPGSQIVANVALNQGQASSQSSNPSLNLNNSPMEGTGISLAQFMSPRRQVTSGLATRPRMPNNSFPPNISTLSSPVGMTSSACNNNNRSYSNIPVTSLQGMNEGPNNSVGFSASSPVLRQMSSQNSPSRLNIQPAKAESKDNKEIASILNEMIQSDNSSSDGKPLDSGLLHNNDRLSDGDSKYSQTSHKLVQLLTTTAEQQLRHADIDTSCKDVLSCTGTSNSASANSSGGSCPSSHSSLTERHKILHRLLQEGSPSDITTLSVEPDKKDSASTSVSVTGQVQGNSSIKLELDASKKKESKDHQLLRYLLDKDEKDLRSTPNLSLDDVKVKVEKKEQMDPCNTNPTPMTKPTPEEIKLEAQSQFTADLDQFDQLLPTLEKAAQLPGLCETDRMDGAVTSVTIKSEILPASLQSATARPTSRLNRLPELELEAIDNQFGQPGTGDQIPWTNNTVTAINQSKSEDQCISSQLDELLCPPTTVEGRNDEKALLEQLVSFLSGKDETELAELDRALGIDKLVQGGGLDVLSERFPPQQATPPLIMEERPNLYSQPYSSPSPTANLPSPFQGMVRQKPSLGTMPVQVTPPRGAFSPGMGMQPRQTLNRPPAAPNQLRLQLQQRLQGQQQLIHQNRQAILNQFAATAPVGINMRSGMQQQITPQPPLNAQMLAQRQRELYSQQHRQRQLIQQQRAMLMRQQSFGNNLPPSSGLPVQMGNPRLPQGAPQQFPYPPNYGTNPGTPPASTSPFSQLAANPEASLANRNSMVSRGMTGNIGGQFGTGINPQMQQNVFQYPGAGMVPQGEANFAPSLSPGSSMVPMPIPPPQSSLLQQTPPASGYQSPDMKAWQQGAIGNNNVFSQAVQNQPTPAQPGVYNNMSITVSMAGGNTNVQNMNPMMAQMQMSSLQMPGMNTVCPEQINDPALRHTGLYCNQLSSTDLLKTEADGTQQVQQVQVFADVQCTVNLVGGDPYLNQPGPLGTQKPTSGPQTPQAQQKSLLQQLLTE

[3] = target: Peroxisome proliferator-activated receptor gamma/Nuclear receptor coactivator 2 (Homo sapiens, UniProt P37231); format: functional;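 also: agonist potency for raising coactivator recruitment to the receptor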
[4] = target: Peroxisome proliferator-activated receptor gamma/Nuclear receptor coactivator 3 (Homo sapiens, UniProt P37231); format: functional;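 also: agonist potency for raising coactivator recruitment to the receptor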
Sequence of Peroxisome proliferator-activated receptor gamma/Nuclear receptor coactivator 3 (P37231 whole entry): as the sequence (P37231 whole entry) above
Sequence of Peroxisome proliferator-activated receptor gamma/Nuclear receptor coactivator 3 (Q9Y6Q9 whole entry, further chain): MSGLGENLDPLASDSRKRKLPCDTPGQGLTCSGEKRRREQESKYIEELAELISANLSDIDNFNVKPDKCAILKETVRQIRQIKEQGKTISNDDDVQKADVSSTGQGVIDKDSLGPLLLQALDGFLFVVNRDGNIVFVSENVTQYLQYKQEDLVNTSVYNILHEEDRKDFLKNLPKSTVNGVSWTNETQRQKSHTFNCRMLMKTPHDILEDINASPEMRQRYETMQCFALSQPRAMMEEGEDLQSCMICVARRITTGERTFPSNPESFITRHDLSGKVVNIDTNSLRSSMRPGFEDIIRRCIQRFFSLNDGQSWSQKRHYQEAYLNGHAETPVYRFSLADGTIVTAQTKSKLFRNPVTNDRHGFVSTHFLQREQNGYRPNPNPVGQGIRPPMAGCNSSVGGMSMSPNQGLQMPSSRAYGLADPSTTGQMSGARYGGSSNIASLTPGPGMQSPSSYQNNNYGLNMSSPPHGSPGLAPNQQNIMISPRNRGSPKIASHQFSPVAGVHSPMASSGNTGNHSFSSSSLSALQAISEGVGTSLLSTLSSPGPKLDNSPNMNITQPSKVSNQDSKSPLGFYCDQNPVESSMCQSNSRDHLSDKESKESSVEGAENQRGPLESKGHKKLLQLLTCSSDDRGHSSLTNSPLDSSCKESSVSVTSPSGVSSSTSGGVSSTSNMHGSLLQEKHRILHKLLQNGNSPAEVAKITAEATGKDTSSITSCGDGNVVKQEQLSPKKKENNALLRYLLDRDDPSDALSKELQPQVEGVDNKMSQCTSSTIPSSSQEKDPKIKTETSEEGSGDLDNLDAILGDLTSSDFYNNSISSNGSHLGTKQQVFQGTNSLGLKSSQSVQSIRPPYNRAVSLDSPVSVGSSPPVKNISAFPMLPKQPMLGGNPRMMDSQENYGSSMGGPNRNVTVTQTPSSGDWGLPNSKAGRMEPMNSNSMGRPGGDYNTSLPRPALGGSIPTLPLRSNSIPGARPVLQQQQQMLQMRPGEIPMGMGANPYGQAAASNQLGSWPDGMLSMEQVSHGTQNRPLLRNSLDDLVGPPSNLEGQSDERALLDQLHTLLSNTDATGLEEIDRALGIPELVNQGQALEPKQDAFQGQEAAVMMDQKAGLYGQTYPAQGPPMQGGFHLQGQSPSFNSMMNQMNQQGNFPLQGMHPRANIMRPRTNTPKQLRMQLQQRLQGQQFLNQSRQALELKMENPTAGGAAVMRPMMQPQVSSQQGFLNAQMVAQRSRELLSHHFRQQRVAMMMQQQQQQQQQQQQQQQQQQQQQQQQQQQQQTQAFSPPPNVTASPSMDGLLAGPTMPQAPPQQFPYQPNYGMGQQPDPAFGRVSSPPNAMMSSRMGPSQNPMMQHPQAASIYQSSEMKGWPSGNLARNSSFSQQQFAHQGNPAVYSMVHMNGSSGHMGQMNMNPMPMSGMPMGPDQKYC

HeLa = assay: HeLa cell cytotoxicity, dose response, cytotoxicity control for MITF activator project, CellTiter-Glo luminescence, cherry-pick samples (AID 540259); format: functional, cell-based; details: Homo sapiens
Cytochrome P450 2C9 = Cytochrome P450 2C9 (Homo sapiens, UniProt P11712)
[5] = NIH-3T3 fibroblast cytotoxicity, dose response, cytotoxicity control, cell-based, fluorescence, Alamar Blue, secondary assay (AID 2327); format: functional;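 also: NIH-3T3 mouse fibroblasts cultured with fluconazole at 8 µg/mL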
[6] = target: Protein-tyrosine kinase 2-beta (Homo sapiens, UniProt Q14289);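 also: potency of inhibitors of PYK2 kinase phosphorylation of poly-GT substrate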
Sequence of Protein-tyrosine kinase 2-beta (Q14289 whole entry): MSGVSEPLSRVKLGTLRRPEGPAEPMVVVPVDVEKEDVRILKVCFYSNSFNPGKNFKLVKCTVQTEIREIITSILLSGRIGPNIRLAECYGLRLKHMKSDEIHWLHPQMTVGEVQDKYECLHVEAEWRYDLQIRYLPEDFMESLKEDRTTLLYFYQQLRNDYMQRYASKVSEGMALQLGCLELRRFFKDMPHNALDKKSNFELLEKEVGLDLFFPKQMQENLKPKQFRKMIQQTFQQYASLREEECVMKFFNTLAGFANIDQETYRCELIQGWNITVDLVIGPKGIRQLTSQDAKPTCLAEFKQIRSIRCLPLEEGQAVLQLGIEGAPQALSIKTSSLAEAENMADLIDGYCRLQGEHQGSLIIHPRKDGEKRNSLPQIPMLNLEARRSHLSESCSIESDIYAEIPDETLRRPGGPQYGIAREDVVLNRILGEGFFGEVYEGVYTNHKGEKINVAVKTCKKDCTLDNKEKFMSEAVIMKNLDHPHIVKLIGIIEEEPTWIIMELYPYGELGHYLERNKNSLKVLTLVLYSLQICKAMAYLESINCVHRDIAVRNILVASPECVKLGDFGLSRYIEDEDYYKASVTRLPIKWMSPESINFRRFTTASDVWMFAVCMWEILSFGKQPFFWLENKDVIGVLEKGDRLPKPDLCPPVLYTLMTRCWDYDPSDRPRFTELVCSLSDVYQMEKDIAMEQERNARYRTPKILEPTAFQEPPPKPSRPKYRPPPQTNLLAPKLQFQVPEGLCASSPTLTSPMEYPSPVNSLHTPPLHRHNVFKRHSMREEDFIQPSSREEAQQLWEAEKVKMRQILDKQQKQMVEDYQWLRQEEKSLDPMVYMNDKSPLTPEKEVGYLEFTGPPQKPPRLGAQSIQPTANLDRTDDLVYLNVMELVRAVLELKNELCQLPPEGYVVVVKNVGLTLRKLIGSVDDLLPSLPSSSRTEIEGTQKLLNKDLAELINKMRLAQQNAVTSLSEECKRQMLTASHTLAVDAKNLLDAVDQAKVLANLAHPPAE

[7] = target: T1, Adenosylmethionine-8-amino-7-oxononanoate aminotransferase (Mycobacterium tuberculosis, UniProt P9WQ81); assay: Mycobacterium tuberculosis BioA enzyme inhibitor Measured in Biochemical System Using Plate Reader - 2163-02_Inhibitor_Dose_CherryPick_Activity.; format: functional, Mycobacterium tuberculosis UT205
T1 sequence (P9WQ81 whole entry): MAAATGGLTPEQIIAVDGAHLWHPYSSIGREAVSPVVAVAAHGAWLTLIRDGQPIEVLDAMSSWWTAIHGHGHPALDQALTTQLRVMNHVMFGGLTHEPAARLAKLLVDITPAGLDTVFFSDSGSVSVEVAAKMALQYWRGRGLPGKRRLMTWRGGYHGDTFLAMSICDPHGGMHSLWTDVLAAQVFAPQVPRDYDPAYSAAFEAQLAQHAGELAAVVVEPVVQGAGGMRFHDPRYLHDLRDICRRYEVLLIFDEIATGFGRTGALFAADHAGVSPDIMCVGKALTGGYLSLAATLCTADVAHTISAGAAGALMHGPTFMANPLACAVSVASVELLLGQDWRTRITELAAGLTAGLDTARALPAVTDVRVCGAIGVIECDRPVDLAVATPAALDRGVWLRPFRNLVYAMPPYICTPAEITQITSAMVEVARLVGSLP

[8] = C. albicans growth with fluconazole, confirmation, fluorescence, retest (AID 2467); format: functional, cell-based
[9] = inhibitors of Vif binding to APOBEC3G peptide, primary screen, biochemical, TR-FRET, GST-Vif 1-94, biotin-A3G peptide, dose response retest (AID 1117319); format: functional;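 also: TR-FRET signal of purified GST-Vif binding a biotinylated A3G peptide; inhibitors lower the FRET signal by blocking Vif and A3G binding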
Nonstructural protein 1 = Nonstructural protein 1 (Influenza A virus, UniProt Q194T2); format: functional, Influenza A virus (A/California/07/2009(H1N1))
Bcl-2-related protein A1 = target: T2, Bcl-2-related protein A1 (Mus musculus, UniProt Q07440); format: functional;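 also: confirmatory dose–response counterscreen on Bfl-1, used to check hits from a UBC13 polyubiquitin inhibitor campaign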
T2 sequence (Q07440 whole entry): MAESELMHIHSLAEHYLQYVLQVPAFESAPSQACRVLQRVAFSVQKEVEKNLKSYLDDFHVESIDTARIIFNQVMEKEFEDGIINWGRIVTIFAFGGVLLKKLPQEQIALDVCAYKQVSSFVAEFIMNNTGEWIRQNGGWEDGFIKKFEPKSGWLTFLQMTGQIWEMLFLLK

[10] = cytotoxicity toward NIH3T3 fibroblasts, dose response, counter-screen, cell-based, ATP luminescence, mouse fibroblasts (AID 2010); format: functional;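 also: cells exposed to compound for about 90 hours before reading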
[11] = inhibitors of intracellular T. cruzi replication, confirmation, NIH3T3 host cells, beta-gal luminescence (AID 2044); format: functional, cell-based;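 also: intracellular parasites grown in NIH/3T3 mouse fibroblasts as host cells; luminescent beta-galactosidase reporter signal from transgenic T. cruzi replicating inside host cells; inhibitors lower the luminescence signal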
[12] = target: T3, Ubiquitin-conjugating enzyme E2 N (Homo sapiens, UniProt P61088); format: functional
T3 sequence (P61088 whole entry): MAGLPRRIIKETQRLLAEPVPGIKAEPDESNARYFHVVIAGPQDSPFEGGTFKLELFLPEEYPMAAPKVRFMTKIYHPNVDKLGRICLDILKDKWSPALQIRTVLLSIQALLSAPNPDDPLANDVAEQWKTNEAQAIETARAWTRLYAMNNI

[13] = target: T3, Ubiquitin-conjugating enzyme E2 N; format: functional; remark: listed apart in the source
[14] = target: T4, Voltage-gated N-type calcium channel alpha-1B subunit/Amyloid beta A4 precursor protein-binding family A member 1 (Homo sapiens, UniProt Q00975+Q02410); format: protein assay
[15] = target: Induced myeloid leukemia cell differentiation protein Mcl-1 (Homo sapiens, UniProt Q07820); format: functional
[16] = target: T4, Voltage-gated N-type calcium channel alpha-1B subunit/Amyloid beta A4 precursor protein-binding family A member 1; format: protein assay; remark: listed apart in the source
Escherichia coli = assay: microbe, parasite or virus in culture
cells = format: functional
[17] = Vero E6 cell cytotoxicity, dose response, cytotoxicity control for non-replicating M. tuberculosis project, secondary assay (AID 492998); format: functional, VeroE6; details: Vero C1008
[18] = THP-1 cell cytotoxicity, dose response, cytotoxicity control for non-replicating M. tuberculosis project (AID 489025); format: functional
[19] = test system: Streptococcus sp. 'group A'; assay: growth inhibition of control SK(-) GAS strain, dose response, counter-screen for streptokinase expression inhibitor project, luminescence, kanamycin, BacTiterGlo, confirmation (AID 1900); format: functional, organism-based
Streptococcus = assay: Group A Streptococcus viability loss, dose response, counter-screen for streptokinase expression inhibitor project, luminescence, BacTiterGlo (AID 1915); format: functional, organism-based;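 also: potency for reduction of bacterial viability or growth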
[20] = target: Voltage-dependent T-type calcium channel subunit alpha-1H (Homo sapiens, UniProt O95180); format: functional;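 also: channel activity triggered by adding a high calcium stimulation buffer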
[21] = target: T5, Rac GTPase-activating protein 1 (Homo sapiens, UniProt Q9H0H5); assay: MgcRacGAP GTPase-activating activity inhibitors, confirmation, biochemical, ADP Hunter fluorescence, primary and confirmatory (AID 624330); format: functional
T5 sequence (Q9H0H5 whole entry): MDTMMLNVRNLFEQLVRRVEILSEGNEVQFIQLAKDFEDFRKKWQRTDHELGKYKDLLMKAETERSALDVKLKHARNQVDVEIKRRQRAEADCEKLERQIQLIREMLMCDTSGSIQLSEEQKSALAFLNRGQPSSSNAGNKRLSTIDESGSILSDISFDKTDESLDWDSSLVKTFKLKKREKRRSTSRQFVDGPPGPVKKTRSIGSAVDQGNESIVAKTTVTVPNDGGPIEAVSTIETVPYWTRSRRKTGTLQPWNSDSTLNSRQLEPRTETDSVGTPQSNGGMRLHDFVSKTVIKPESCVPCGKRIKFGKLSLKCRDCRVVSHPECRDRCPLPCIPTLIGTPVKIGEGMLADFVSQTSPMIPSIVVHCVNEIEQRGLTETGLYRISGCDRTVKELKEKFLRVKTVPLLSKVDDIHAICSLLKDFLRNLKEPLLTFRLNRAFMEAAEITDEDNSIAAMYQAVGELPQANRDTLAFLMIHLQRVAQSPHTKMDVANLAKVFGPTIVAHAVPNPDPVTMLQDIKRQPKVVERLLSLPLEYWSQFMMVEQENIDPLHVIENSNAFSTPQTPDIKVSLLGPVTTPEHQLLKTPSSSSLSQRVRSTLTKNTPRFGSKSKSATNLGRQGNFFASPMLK

Sequence of Eukaryotic translation initiation factor 4E (P63073 whole entry): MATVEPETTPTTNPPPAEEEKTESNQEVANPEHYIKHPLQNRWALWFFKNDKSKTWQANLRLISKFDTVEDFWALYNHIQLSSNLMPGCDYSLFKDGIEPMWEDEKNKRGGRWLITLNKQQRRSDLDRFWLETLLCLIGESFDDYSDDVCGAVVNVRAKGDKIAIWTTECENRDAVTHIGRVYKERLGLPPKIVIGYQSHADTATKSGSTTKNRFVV

SMILES: CCCCCC(=O)NC(N=C(S)NC1CCS(=O)(=O)C1)C(Cl)(Cl)Cl (stereo not drawn)
- IC50 [1]: > 64 µM (inactive)

SMILES: O=C(Nc1ccc(N2CCCCC2)cc1)c1cncc(Br)c1
- EC50 [2]: > 79.4 µM (not active)
- EC50 [3]: > 79.4 µM (not active)
- EC50 [4]: > 79.4 µM (not active)
- AC50 (HeLa): 50.2 µM (active)
- AC50 (Cytochrome P450 2C9): 14.1 µM (inconclusive)

SMILES: CCOC(=O)CNC(=O)c1sc2ncnc(N3CCc4ccccc4C3)c2c1C
- EC50 [5]: > 150 µM (inactive)
- IC50 [6]: 41.7 µM (not active)
- AC50 [7]: 4.06 µM (active)
- EC50 [8]: 3.42 µM (active)

SMILES: O=C(O)c1cccc(NCc2ccncc2)c1
- IC50 [9]: > 100 µM (active)

SMILES: Cc1ccc2c(c1)C1CN(C)CCC1N2S(=O)(=O)c1ccc(Oc2ccc([N+](=O)[O-])cc2)cc1 (stereo not drawn)
- IC50 (Nonstructural protein 1): > 100 µM (active)

SMILES: Cc1cc(C)c2sc(N(CCCN(C)C)C(=O)c3ccc(S(=O)(=O)N(C)C4CCCCC4)cc3)nc2c1
- IC50 (Bcl-2-related protein A1): > 20 µM (inactive)
- EC50 [10]: > 30 µM (not active)
- EC50 [11]: 0.385 µM (active)
- IC50 [12]: 10 µM (active)
- IC50 [13]: 10.6 µM (active)

SMILES: CCC1=NNc2cccc3c(OC)ccc1c23
- IC50 [14]: 0.521 µM (active)
- IC50 [15]: 8.79 µM (not active)
- IC50 [6]: 2.15 µM (active)
- IC50 [16]: 0.586 µM (active)

SMILES: OC1(c2ccccc2Cl)NN=C2CCCCCN21 (stereo not drawn)
- AC50 (Escherichia coli): 26 µM (active)

SMILES: CC(C)CCNC(=O)NC(=O)COC(=O)/C=C/c1cnc2ccccc2n1
- EC50 [2]: 49.5 µM (not active)
- EC50 [3]: 32 µM (not active)
- EC50 [4]: 35.9 µM (not active)

SMILES: Cc1ccccc1NC(=O)Cn1nnc2c(cnn2-c2ccc(F)cc2)c1=O
- IC50 [1]: > 64 µM (inactive)

SMILES: CC(C)(C)c1ccc(-c2nc(C#N)c(NCCCn3ccnc3)o2)cc1
- IC50 (cells): 25.4 µM (active)
- CC50 [17]: > 20 µM (active)

SMILES: Cc1ccc2nsnc2c1S(=O)(=O)Nc1cccc2nsnc12
- IC50 [6]: 6.7 µM (active)

SMILES: Cc1cc(Nc2ccccc2)n(-c2nc3ccccc3[nH]2)n1
- CC50 [18]: 38 µM (active)
- EC50 [19]: 2.16 µM (active)
- IC50 (cells): 1.07 µM (active)
- EC50 (Streptococcus): 5.5 µM (active)
- CC50 [17]: 18.8 µM (active)

SMILES: CCCCn1nnc(NC(=O)c2ccc(-c3cccc(Cl)c3)o2)n1
- EC50 [20]: 4.23 µM (active)
- IC50 [9]: > 100 µM (active)

SMILES: CN(C)c1nc(SCC#N)nc(N2CCOCC2)n1
- AC50 (Escherichia coli): 66.1 µM (active)

SMILES: O=C(Nc1ccc2c(c1)OCCO2)C1CCC1
- IC50 [9]: > 100 µM (active)

SMILES: O=C(CSc1nnc(CNc2ccccc2)o1)N1CCc2ccccc21
- IC50 [1]: > 64 µM (inactive)

SMILES: CN1CCC(O)(c2cccs2)C(C(=O)c2cccs2)C1 (stereo not drawn)
- IC50 (cells): 15.4 µM (active)
- CC50 [17]: > 20 µM (active)

SMILES: C#CCOCCOCCOCCNc1nc(N2CCN(C(=O)[C@H](CCCCN)n3cc(CN)nn3)CC2)nc(N2CCN(C(=O)[C@H](CCCCN)n3cc(CN)nn3)CC2)n1
- IC50 (Bcl-2-related protein A1): > 20 µM (inactive)
- IC50 [12]: 5.15 µM (active)
- IC50 [21]: 203 µM (active)
- IC50 [13]: 5.36 µM (active)

SMILES: Cc1nc2ccccc2n1C1CCN(CC(=O)Nc2ccccc2Br)CC1 [ASN06356088]
- IC50 (Bcl-2-related protein A1): > 20 µM (inactive)
- IC50 [12]: > 20 µM (inactive)
- IC50 [13]: 16.4 µM (active)
